Common to all, as to type: protein assay
For one experiment, the target named is Adrenergic receptor beta (Homo sapiens, UniProt P08588+P07550+P13945). Put plainly: Concentration required for inhibition of beta adrenergic receptor.
Experiment [1] deals with T1, Adrenergic receptor alpha-2 (Homo sapiens, UniProt P08913+P18825+P18089).
T1 sequence (P08913 whole entry): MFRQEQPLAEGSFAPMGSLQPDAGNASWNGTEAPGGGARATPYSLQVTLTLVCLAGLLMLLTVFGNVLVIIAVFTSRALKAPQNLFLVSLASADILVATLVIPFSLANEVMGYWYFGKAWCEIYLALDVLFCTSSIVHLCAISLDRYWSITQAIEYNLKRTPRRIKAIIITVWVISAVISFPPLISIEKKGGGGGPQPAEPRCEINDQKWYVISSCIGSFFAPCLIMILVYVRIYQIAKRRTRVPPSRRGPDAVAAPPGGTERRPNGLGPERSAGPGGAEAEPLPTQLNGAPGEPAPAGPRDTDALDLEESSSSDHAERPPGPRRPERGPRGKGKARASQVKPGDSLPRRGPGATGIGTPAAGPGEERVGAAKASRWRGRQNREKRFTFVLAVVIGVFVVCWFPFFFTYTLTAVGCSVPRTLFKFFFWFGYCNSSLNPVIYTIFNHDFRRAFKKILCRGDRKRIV
T1 sequence (P18825 whole entry): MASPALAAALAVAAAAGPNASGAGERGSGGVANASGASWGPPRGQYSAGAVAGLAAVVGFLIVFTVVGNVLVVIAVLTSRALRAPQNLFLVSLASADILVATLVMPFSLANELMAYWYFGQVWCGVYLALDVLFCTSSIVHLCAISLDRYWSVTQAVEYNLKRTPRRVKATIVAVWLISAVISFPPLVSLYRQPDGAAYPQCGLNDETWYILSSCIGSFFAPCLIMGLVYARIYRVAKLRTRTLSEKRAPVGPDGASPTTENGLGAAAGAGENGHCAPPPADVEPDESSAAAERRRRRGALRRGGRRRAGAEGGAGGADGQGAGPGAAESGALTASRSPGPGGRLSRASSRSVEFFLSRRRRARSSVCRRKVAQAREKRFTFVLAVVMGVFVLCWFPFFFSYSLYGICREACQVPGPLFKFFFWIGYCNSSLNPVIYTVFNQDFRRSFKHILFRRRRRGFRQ
T1 sequence (P18089 whole entry): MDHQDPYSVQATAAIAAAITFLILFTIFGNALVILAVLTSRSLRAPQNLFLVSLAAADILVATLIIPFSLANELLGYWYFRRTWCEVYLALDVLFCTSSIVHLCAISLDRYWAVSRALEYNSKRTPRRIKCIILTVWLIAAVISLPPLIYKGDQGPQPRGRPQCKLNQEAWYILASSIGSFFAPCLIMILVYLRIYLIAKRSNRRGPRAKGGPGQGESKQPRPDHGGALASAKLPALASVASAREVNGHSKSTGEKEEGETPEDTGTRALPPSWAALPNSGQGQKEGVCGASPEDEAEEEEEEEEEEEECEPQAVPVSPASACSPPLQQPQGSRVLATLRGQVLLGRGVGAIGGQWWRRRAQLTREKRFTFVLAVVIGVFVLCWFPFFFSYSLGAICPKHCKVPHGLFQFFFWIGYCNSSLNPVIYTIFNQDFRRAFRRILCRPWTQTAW
Put plainly: Concentration required for inhibition of alpha-2 adrenergic receptor.

Experiment [2] deals with Serotonin 2 (5-HT2) receptor (Homo sapiens, UniProt P41595+P28223+P28335).
In experiment [3] the target is T2, Adrenergic receptor alpha-1 (Homo sapiens, UniProt P35348+P25100+P35368).
T2 sequence (P35348 whole entry): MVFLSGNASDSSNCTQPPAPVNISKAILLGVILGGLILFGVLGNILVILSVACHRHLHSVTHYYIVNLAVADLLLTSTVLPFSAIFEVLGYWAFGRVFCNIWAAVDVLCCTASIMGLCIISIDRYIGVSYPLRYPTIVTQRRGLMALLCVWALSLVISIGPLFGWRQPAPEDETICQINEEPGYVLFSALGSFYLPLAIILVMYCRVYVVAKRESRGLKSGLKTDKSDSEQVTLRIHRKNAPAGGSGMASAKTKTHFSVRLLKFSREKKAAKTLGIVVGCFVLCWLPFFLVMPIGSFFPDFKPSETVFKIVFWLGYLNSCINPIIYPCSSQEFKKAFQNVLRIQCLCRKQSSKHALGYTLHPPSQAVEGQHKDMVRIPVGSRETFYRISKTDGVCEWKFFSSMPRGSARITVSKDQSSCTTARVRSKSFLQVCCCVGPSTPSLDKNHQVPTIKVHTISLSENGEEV
T2 sequence (P25100 whole entry): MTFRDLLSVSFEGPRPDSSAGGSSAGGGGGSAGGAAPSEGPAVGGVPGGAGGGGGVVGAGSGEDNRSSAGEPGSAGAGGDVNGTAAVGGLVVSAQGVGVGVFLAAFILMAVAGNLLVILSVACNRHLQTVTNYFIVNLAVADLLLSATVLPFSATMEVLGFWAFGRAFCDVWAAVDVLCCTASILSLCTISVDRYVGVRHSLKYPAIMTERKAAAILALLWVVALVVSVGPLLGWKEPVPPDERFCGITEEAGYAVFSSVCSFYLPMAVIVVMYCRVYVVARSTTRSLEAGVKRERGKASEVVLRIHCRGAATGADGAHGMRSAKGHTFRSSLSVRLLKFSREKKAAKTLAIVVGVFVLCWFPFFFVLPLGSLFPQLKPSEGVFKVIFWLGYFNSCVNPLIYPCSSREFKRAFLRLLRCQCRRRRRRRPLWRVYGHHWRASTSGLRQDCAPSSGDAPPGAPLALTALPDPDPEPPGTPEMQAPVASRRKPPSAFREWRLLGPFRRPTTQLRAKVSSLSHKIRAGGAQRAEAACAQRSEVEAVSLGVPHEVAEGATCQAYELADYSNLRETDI
T2 sequence (P35368 whole entry): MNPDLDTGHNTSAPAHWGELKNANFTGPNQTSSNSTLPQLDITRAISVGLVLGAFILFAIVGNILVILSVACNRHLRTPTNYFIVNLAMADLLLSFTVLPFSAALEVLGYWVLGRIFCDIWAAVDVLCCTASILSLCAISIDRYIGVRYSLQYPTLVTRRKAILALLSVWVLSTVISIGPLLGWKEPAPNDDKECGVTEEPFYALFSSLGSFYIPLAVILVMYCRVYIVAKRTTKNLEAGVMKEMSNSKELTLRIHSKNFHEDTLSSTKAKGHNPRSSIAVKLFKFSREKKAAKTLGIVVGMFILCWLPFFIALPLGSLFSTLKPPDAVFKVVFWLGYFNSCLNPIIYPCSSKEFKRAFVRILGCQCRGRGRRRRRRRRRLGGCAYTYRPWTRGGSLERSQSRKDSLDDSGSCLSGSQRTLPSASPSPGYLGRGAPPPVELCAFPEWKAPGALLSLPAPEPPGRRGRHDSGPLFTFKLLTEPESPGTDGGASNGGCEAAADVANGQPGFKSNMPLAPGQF
Put plainly: Concentration required for inhibition of alpha-1 adrenergic receptor using [3H]prazosin as the radioligand.

The structures appear in SMILES notation.

As to `COc1cc(N)c(Cl)cc1C(=O)NCC1C2CC3CC1CN(C3)C2` (stereo in doubt; 9c), the IC50 (against Adrenergic receptor beta; in experiment [1]; in experiment [2]; in experiment [3]) was above 10 µM in each case.

As to `COc1cc(N)c(Cl)cc1C(=O)NC1C2CC3CC1CN(C3)C2` (stereo in doubt; 9a), the IC50 against Adrenergic receptor beta is above 10 µM; in experiment [1], 6.4 µM; in experiment [2], 1.8 µM; in experiment [3], above 10 µM.

On to `COc1cc(N)c(Cl)cc1C(=O)NC1C2CC3CC1CN(C3)C2` (stereo in doubt; 9b), for which the IC50 (against Adrenergic receptor beta; in experiment [1]; in experiment [2]; in experiment [3]) was above 10 µM throughout.

For orientation: IC50 means the point on the concentration scale where inhibition reaches its midpoint. Lower therefore signals higher potency.
